Measured values as given in patent publication US8410161B2, “Thioxanthone ring system derivatives” (National Defense Medical Center, priority 2010, dated 2013).

What was measured:
CCRF-CEM = experiment: NCI in vitro DTP human cell line screen, CCRF-CEM; type: cell-based; conditions: Leukemia, 1.00E−5 Molar
Experimental: (§1) Then, a cell toxicity assay of the cancer lines made by National Cancer Institute will be discussed as follows. The cell toxicity assay is performed by choosing ten compounds (existing certification numbers) from the 59 compounds disclosed in the present invention first.

HL-60(TB) = experiment: NCI in vitro DTP human cell line screen, HL-60(TB); type: cell-based; conditions: Leukemia, 1.00E−5 Molar
Experimental: as §1

K562 = experiment: NCI in vitro DTP human cell line screen, K562; type: cell-based; conditions: Leukemia, 1.00E−5 Molar
Experimental: as §1

MOLT-4 = experiment: NCI in vitro DTP human cell line screen, MOLT-4; type: cell-based; conditions: Leukemia, 1.00E−5 Molar
Experimental: as §1

SR = experiment: NCI in vitro DTP human cell line screen, SR; type: cell-based; conditions: Leukemia, 1.00E−5 Molar
Experimental: as §1

EKVX = experiment: NCI in vitro DTP human cell line screen, EKVX; type: cell-based; conditions: Non-Small Cell Lung Cancer, 1.00E−5 Molar
Experimental: as §1

HOP-62 = experiment: NCI in vitro DTP human cell line screen, HOP-62; type: cell-based; conditions: Non-Small Cell Lung Cancer, 1.00E−5 Molar
Experimental: as §1

HOP-92 = experiment: NCI in vitro DTP human cell line screen, HOP-92; type: cell-based; conditions: Non-Small Cell Lung Cancer, 1.00E−5 Molar
Experimental: as §1

NCI-H226 = experiment: NCI in vitro DTP human cell line screen, NCI-H226; type: cell-based; conditions: Non-Small Cell Lung Cancer, 1.00E−5 Molar
Experimental: as §1

NCI-H23 = experiment: NCI in vitro DTP human cell line screen, NCI-H23; type: cell-based; conditions: Non-Small Cell Lung Cancer, 1.00E−5 Molar
Experimental: as §1

NCI-H322M = experiment: NCI in vitro DTP human cell line screen, NCI-H322M; type: cell-based; conditions: Non-Small Cell Lung Cancer, 1.00E−5 Molar
Experimental: as §1

NCI-H460 = experiment: NCI in vitro DTP human cell line screen, NCI-H460; type: cell-based; conditions: Non-Small Cell Lung Cancer, 1.00E−5 Molar
Experimental: as §1

NCI-H522 = experiment: NCI in vitro DTP human cell line screen, NCI-H522; type: cell-based; conditions: Non-Small Cell Lung Cancer, 1.00E−5 Molar
Experimental: as §1

HCC-2998 = experiment: NCI in vitro DTP human cell line screen, HCC-2998; type: cell-based; conditions: Colon Cancer, 1.00E−5 Molar
Experimental: as §1

HCT-116 = experiment: NCI in vitro DTP human cell line screen, HCT-116; type: cell-based; conditions: Colon Cancer, 1.00E−5 Molar
Experimental: as §1

HCT-15 = experiment: NCI in vitro DTP human cell line screen, HCT-15; type: cell-based; conditions: Colon Cancer, 1.00E−5 Molar
Experimental: as §1

HT29 = experiment: NCI in vitro DTP human cell line screen, HT29; type: cell-based; conditions: Colon Cancer, 1.00E−5 Molar
Experimental: as §1

KM12 = experiment: NCI in vitro DTP human cell line screen, KM12; type: cell-based; conditions: Colon Cancer, 1.00E−5 Molar
Experimental: as §1

SW-620 = experiment: NCI in vitro DTP human cell line screen, SW-620; type: cell-based; conditions: Colon Cancer, 1.00E−5 Molar
Experimental: as §1

SF-268 = experiment: NCI in vitro DTP human cell line screen, SF-268; type: cell-based; conditions: CNS Cancer, 1.00E−5 Molar
Experimental: as §1

SF-295 = experiment: NCI in vitro DTP human cell line screen, SF-295; type: cell-based; conditions: CNS Cancer, 1.00E−5 Molar
Experimental: as §1

SF-539 = experiment: NCI in vitro DTP human cell line screen, SF-539; type: cell-based; conditions: CNS Cancer, 1.00E−5 Molar
Experimental: as §1

SNB-19 = experiment: NCI in vitro DTP human cell line screen, SNB-19; type: cell-based; conditions: CNS Cancer, 1.00E−5 Molar
Experimental: as §1

SNB-75 = experiment: NCI in vitro DTP human cell line screen, SNB-75; type: cell-based; conditions: CNS Cancer, 1.00E−5 Molar
Experimental: as §1

U251 = experiment: NCI in vitro DTP human cell line screen, U251; type: cell-based; conditions: CNS Cancer, 1.00E−5 Molar
Experimental: as §1

LOX IMVI = experiment: NCI in vitro DTP human cell line screen, LOX IMVI; type: cell-based; conditions: Melanoma, 1.00E−5 Molar
Experimental: as §1

MALME-3M = experiment: NCI in vitro DTP human cell line screen, MALME-3M; type: cell-based; conditions: Melanoma, 1.00E−5 Molar
Experimental: as §1

M14 = experiment: NCI in vitro DTP human cell line screen, M14; type: cell-based; conditions: Melanoma, 1.00E−5 Molar
Experimental: as §1

MDA-MB-435 = experiment: NCI in vitro DTP human cell line screen, MDA-MB-435; type: cell-based; conditions: Melanoma, 1.00E−5 Molar
Experimental: as §1

SK-MEL-2 = experiment: NCI in vitro DTP human cell line screen, SK-MEL-2; type: cell-based; conditions: Melanoma, 1.00E−5 Molar
Experimental: as §1

SK-MEL-28 = experiment: NCI in vitro DTP human cell line screen, SK-MEL-28; type: cell-based; conditions: Melanoma, 1.00E−5 Molar
Experimental: as §1

SK-MEL-5 = experiment: NCI in vitro DTP human cell line screen, SK-MEL-5; type: cell-based; conditions: Melanoma, 1.00E−5 Molar
Experimental: as §1

UACC-257 = experiment: NCI in vitro DTP human cell line screen, UACC-257; type: cell-based; conditions: Melanoma, 1.00E−5 Molar
Experimental: as §1

IGROV1 = experiment: NCI in vitro DTP human cell line screen, IGROV1; type: cell-based; conditions: Ovarian Cancer, 1.00E−5 Molar
Experimental: as §1

OVCAR-4 = experiment: NCI in vitro DTP human cell line screen, OVCAR-4; type: cell-based; conditions: Ovarian Cancer, 1.00E−5 Molar
Experimental: as §1

OVCAR-5 = experiment: NCI in vitro DTP human cell line screen, OVCAR-5; type: cell-based; conditions: Ovarian Cancer, 1.00E−5 Molar
Experimental: as §1

OVCAR-8 = experiment: NCI in vitro DTP human cell line screen, OVCAR-8; type: cell-based; conditions: Ovarian Cancer, 1.00E−5 Molar
Experimental: as §1

NCI/ADR-RES = experiment: NCI in vitro DTP human cell line screen, NCI/ADR-RES; type: cell-based; conditions: Ovarian Cancer, 1.00E−5 Molar
Experimental: as §1

SK-OV-3 = experiment: NCI in vitro DTP human cell line screen, SK-OV-3; type: cell-based; conditions: Ovarian Cancer, 1.00E−5 Molar
Experimental: as §1

ACHN = experiment: NCI in vitro DTP human cell line screen, ACHN; type: cell-based; conditions: Renal Cancer, 1.00E−5 Molar
Experimental: as §1

CAKI-1 = experiment: NCI in vitro DTP human cell line screen, CAKI-1; type: cell-based; conditions: Renal Cancer, 1.00E−5 Molar
Experimental: as §1

RXF 393 = experiment: NCI in vitro DTP human cell line screen, RXF 393; type: cell-based; conditions: Renal Cancer, 1.00E−5 Molar
Experimental: as §1

TK-10 = experiment: NCI in vitro DTP human cell line screen, TK-10; type: cell-based; conditions: Renal Cancer, 1.00E−5 Molar
Experimental: as §1

UO-31 = experiment: NCI in vitro DTP human cell line screen, UO-31; type: cell-based; conditions: Renal Cancer, 1.00E−5 Molar
Experimental: as §1

PC-3 = experiment: NCI in vitro DTP human cell line screen, PC-3; type: cell-based; conditions: Prostate Cancer, 1.00E−5 Molar
Experimental: as §1

DU145 = experiment: NCI in vitro DTP human cell line screen, DU145; type: cell-based; conditions: Prostate Cancer, 1.00E−5 Molar
Experimental: as §1

MCF7 = experiment: NCI in vitro DTP human cell line screen, MCF7; type: cell-based; conditions: Breast Cancer, 1.00E−5 Molar
Experimental: as §1

HS 578-T = experiment: NCI in vitro DTP human cell line screen, HS 578-T; type: cell-based; conditions: Breast Cancer, 1.00E−5 Molar
Experimental: as §1

BT-549 = experiment: NCI in vitro DTP human cell line screen, BT-549; type: cell-based; conditions: Breast Cancer, 1.00E−5 Molar
Experimental: as §1

T-47D = experiment: NCI in vitro DTP human cell line screen, T-47D; type: cell-based; conditions: Breast Cancer, 1.00E−5 Molar
Experimental: as §1

MDA-MB-468 = experiment: NCI in vitro DTP human cell line screen, MDA-MB-468; type: cell-based; conditions: Breast Cancer, 1.00E−5 Molar
Experimental: as §1

60 cancer lines = experiment: NCI cell toxicity assay of 60 cancer lines, whole panel summary; type: cell-based, human; conditions: mean over all cell lines; 1.00E−5 Molar
Experimental: as §1

For `COc1ccc(CSc2ccc3c(=O)c4ccccc4sc3c2Cl)cc1` [No. 27, 4-Chloro-3-(4-methoxybenzylthio)-9H-thioxanthen-9-one], the “Growth Percent” value (CCRF-CEM) was 89.83%, the “Growth Percent” value (HL-60(TB)) was 121.13% and the “Growth Percent” value (K562) was 114.13%. For the same molecule, the “Growth Percent” value (MOLT-4) was 102.31%, the “Growth Percent” value (SR) was 84.48% and the “Growth Percent” value (EKVX) was 114.01%. The “Growth Percent” value (HOP-62) was 110.61%, the “Growth Percent” value (HOP-92) was 78.71% and the “Growth Percent” value (NCI-H226) was 100.46%. The “Growth Percent” value (NCI-H23) was 99.92%, the “Growth Percent” value (NCI-H322M) was 95.82% and the “Growth Percent” value (NCI-H460) was 107.02%. The “Growth Percent” value (NCI-H522) was 94.65%, the “Growth Percent” value (HCC-2998) was 105.73% and the “Growth Percent” value (HCT-116) was 95.54%. For the same molecule, the “Growth Percent” value (HCT-15) was 104.37%, the “Growth Percent” value (HT29) was 108.69% and the “Growth Percent” value (KM12) was 108.05%. For the same molecule, the “Growth Percent” value (SW-620) was 106.98%, the “Growth Percent” value (SF-268) was 101.32% and the “Growth Percent” value (SF-295) was 107.03%. The “Growth Percent” value (SF-539) was 106.78%, the “Growth Percent” value (SNB-19) was 97.16% and the “Growth Percent” value (SNB-75) was 97.97%. The “Growth Percent” value (U251) was 96.42%, the “Growth Percent” value (LOX IMVI) was 101.59% and the “Growth Percent” value (MALME-3M) was 107.44%. The “Growth Percent” value (M14) was 99.76%, the “Growth Percent” value (MDA-MB-435) was 107.44% and the “Growth Percent” value (SK-MEL-2) was 104.94%. The “Growth Percent” value (SK-MEL-28) was 118.75%, the “Growth Percent” value (SK-MEL-5) was 101.55% and the “Growth Percent” value (UACC-257) was 100.47%. For the same molecule, the “Growth Percent” value (IGROV1) was 108.76%, the “Growth Percent” value (OVCAR-4) was 104.27% and the “Growth Percent” value (OVCAR-5) was 103.70%. The “Growth Percent” value (OVCAR-8) was 95.58%, the “Growth Percent” value (NCI/ADR-RES) was 106.73% and the “Growth Percent” value (SK-OV-3) was 107.96%. For the same molecule, the “Growth Percent” value (ACHN) was 104.71%, the “Growth Percent” value (CAKI-1) was 102.18% and the “Growth Percent” value (RXF 393) was 117.83%. For the same molecule, the “Growth Percent” value (TK-10) was 105.39%, the “Growth Percent” value (UO-31) was 102.53% and the “Growth Percent” value (PC-3) was 93.39%. For the same molecule, the “Growth Percent” value (DU145) was 114.70%, the “Growth Percent” value (MCF7) was 101.77% and the “Growth Percent” value (HS 578-T) was 124.03%. For the same molecule, the “Growth Percent” value (BT-549) was 93.21%, the “Growth Percent” value (T-47D) was 88.81% and the “Growth Percent” value (MDA-MB-468) was 102.80%. For the same molecule, the “Growth Percent, Mean” value (60 cancer lines) was 103.13%.
